Results from BindingDB's records for doi:10.1016/j.bmcl.2009.04.023 (Banyu Pharmaceutical, 2009).

Target: Nociceptin receptor (Homo sapiens, UniProt P41146)
Assay: In Vitro Binding Assay (IC50) and In Vitro Agonism/Antagonism Measurements (EC50/IC50)
Settings: pH 7.4; 37 °C
Method: Compounds were tested for their inhibitory effects on ligand binding to the human ORL1 receptor. Bound and free radioligands are separated by filtration using a unifilter plate GF/C-96. The remaining radioactivity on the filter was counted using a TopCount-HTS (PerkinElmer). Specific binding of [125I][Tyr14]nociceptin is defined as the difference between total binding and nonspecific binding in the presence of 1 uM nociceptin. J-113397 was used as internal control across all assay plates for internal validation. IC50 values are calculated using GraphPad Prism. Agonist/antagonist activities were measured by the [35S]GTPgamma-S binding to proteins using membrane fractions of CHO cells expressing ORL1. Nonspecific binding is determined in the presence of 10 uM unlabeled GTPgammaS. Membrane-bound radioactivity is measured using a TopCount-HTS (PerkinElmer). Specific binding of [35S]GTPgammaS is determined as a difference between the control (in the presence of appropriate concentration of nociceptin), and the baseline (in the presence of DMSO instead of compound). EC50/IC50 values are calculated from % of specific binding in the presence of various concentration of the compound using GraphPad Prism 3.03.

Sequence of Nociceptin receptor (P41146 whole entry): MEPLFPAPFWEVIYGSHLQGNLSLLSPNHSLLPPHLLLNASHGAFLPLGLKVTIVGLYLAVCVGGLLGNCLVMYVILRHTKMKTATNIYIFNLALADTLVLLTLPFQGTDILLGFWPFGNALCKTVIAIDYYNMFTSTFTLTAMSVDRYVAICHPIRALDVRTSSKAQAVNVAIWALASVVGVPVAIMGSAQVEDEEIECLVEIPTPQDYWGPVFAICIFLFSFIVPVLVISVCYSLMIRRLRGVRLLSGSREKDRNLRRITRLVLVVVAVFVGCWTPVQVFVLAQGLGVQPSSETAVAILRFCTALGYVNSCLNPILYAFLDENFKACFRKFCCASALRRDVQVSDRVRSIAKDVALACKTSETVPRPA

Row | Structure (SMILES) | IC50
1 | CCN1CCN(c2cc3[nH]c(C(=O)[C@]4(C)CC[C@@H](NC(=O)OC)CC4)nc3cc2Cl)CC1 [2-Cyclohexylcarbonylbenzimidazole, 7a] | 7.5 nM
2 | CCN1CCN(c2cc3[nH]c(C(=O)[C@]4(C)CC[C@@H](NC(=O)OC)CC4)nc3cc2C)CC1 [2-Cyclohexylcarbonylbenzimidazole, 7b] | 5.3 nM
3 | CCN1CCN(c2cc3[nH]c(C(=O)[C@]4(C)CC[C@@](C)(O)CC4)nc3cc2Cl)CC1 [2-Cyclohexylcarbonylbenzimidazole, 7c] | 1.3 nM
4 | CCN1CCN(c2cc3[nH]c(C(=O)[C@]4(CC)CC[C@@](C)(O)CC4)nc3cc2Cl)CC1 [2-Cyclohexylcarbonylbenzimidazole, 7e] | 2.4 nM
5 | CCN1CCN(c2cc3[nH]c(C(=O)C4(C)CCC(=O)CC4)nc3cc2Cl)CC1 [2-Cyclohexylcarbonylbenzimidazole, 9] | 38 nM
